Measured values taken from publication PMC5346462 (Biochimie, 2017).

What was measured:
[1] = biological target: T1, MiGSTU (Mangifera indica glutathione S-transferase Tau class) (Mangifera indica, UniProt A0A1P8NWC2); assay: steady-state enzyme kinetics of the purified enzyme; type: biochemical; details: read-out: CDNB / Km
T1 sequence (A0A1P8NWC2 1-229): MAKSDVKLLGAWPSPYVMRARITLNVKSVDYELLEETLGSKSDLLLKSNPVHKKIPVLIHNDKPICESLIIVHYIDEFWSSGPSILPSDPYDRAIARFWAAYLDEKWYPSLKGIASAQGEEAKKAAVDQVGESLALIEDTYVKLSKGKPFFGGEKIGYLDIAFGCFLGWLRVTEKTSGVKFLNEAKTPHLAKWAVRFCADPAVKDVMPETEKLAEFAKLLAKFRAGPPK

[2] = biological target: Mangifera indica glutathione S-transferase Tau class (MiGSTU) (mango (Mangifera indica)); assay: SEC

stoichiometry N [2] | Compound | Km [1]
– | O=[N+]([O-])c1ccc(Cl)c([N+](=O)[O-])c1 [CDNB] | 792 µM
2 | Mangifera indica glutathione S-transferase Tau class (MiGSTU) (enzyme) | –
